Reference: patent US6274715A, “Tricyclic erythromycin derivatives” (priority 1997, dated 2001)
In brackets after ≈: the same amount, converted by molar mass.

How the values were obtained:
Assay type in all cases: cell-based
[1] = tested on: STAPHYLOCOCCUS AUREUS 1775; assay: In vitro antibacterial activity, MIC, BHI agar dilution; settings: S. aureus 1775, unit assumed
ESCHERICHIA COLI KNK 437 = settings: unit assumed
[2] = tested on: STAPHYLOCOCCUS AUREUS CMX 642A; assay: In vitro antibacterial activity, MIC, BHI agar dilution; settings: S. aureus CMX 642A, unit assumed
[3] = tested on: STREPTOCOCCUS PYOGENES PIU 2548; assay: as above; settings: S. pyogenes PIU 2548, unit assumed
[4] = tested on: KLEBSIELLA PNEUMONIAE ATCC 8045; assay: as above; settings: K. pneumoniae ATCC 8045, unit assumed
[5] = tested on: PROVIDENCIA STUARTII CMX 640; settings: P. stuartii CMX 640; BHI agar; unit assumed
[6] = tested on: STAPHYLOCOCCUS AUREUS ATCC 6538P; assay: In vitro antibacterial activity, MIC, BHI agar dilution; settings: S. aureus ATCC 6538P, 35-37° C., 20 to 24 hours, unit assumed
PSEUDOMONAS CEPACIA 296I = assay: as above; settings: P. cepacia 296I, unit assumed
[7] = tested on: STAPHYLOCOCCUS AUREUS NCTC10649M; assay: as above; settings: S. aureus NCTC10649M
[8] = tested on: STREPTOCOCCUS PYOGENES EES61; assay: as above; settings: S. pyogenes EES61, unit assumed
CANDIDA ALBICANS CCH 442 = assay: as above; settings: C. albicans CCH 442, unit assumed
M[…] ATCC 9341 = assay: as above
Description: (§1) Representative compounds of the present invention were assayed in vitro for antibacterial activity as follows: Twelve petri dishes containing successive aqueous dilutions of the test compound mixed with 10 mL of sterilized Brain Heart Infusion (BHI) agar (Difco 0418-01-5) were prepared. Each plate was inoculated with 1:100 (or 1:10 for slow-growing strains, such as Micrococcus and Streptococcus) dilutions of up to 32 different microorganisms, using a Steers replicator block. The inoculated plates were incubated at 35-37° C. for 20 to 24 hours. In addition, a control plate, using BHI agar containing no test compound, was prepared and incubated at the beginning and end of each test.
(§2) An additional plate containing a compound having known susceptibility patterns for the organisms being tested and belonging to the same antibiotic class as the test compound was also prepared and incubated as a further control, as well as to provide test-to-test comparability. Erythromycin A was used for this purpose.
(§3) After incubation, each plate was visually inspected. The minimum inhibitory concentration (MIC) was defmed as the lowest concentration of drug yielding no growth, a slight haze, or sparsely isolated colonies on the inoculum spot as compared to the growth control.

STR[…] 508 = assay: as above
Description: as §1, §2, §3

EN[…] ATCC 8043 = assay: as above
Description: as §1, §2, §3

M[…] ATCC 4698 = assay: as above; settings: M. luteus ATCC 4698, unit assumed
Description: as §1, §2, §3

ESCHERICHIA COLI SS = assay: as above; settings: E. coli SS, unit assumed
[9] = tested on: PSEUDOMONAS AERUGINOSA DPHD-2862; assay: as above; settings: P. aeruginosa DPHD-2862, unit assumed
[10] = tested on: PSEUDOMONAS AERUGINOSA DPHD-5263; assay: as above; settings: P. aeruginosa DPHD-5263, unit assumed
[11] = tested on: STAPHYLOCOCCUS AUREUS A5177; assay: as above
[12] = tested on: PSEUDOMONAS AERUGINOSA K799/61; assay: as above
[13] = tested on: STAPHYLOCOCCUS EPIDERMIDIS 3519; settings: S. epidermidis 3519; BHI agar; unit assumed
[14] = tested on: STREPTOCOCCUS BOVIS A-5169; assay: In vitro antibacterial activity, MIC, BHI agar dilution; settings: S. bovis A-5169, unit assumed
ESCHERICHIA COLI H560 = assay: as above
[15] = tested on: STREPTOCOCCUS PYOGENES 930; assay: as above
[16] = tested on: PSEUDOMONAS AERUGINOSA BMH10; assay: as above
[17] = tested on: PSEUDOMONAS AERUGINOSA 5007; assay: as above; settings: P. aeruginosa 5007, unit assumed
[18] = tested on: STAPHYLOCOCCUS AUREUS CMX 553; assay: as above; settings: S. aureus CMX 553, unit assumed
[19] = tested on: STAPHYLOCOCCUS AUREUS A-5278; assay: as above; settings: S. aureus A-5278, unit assumed
[20] = tested on: PSEUDOMONAS AERUGINOSA K799/WT; assay: as above; settings: P. aeruginosa K799/WT
[21] = tested on: ENTEROBACTER AEROGENES ATCC 13048; assay: as above; settings: E. aerogenes ATCC 13048, listed as Ex 39, unit assumed
ESCHERICHIA COLI DC-2 = assay: as above; settings: E. coli DC-2, unit assumed
ESCHERICHIA COLI JUHL = settings: E. coli JUHL; BHI agar; listed as Ex 39; unit assumed

CC[C@H]1OC(=O)[C@H](C)C(=O)[C@H](C)[C@@H](O[C@@H]2O[C@H](C)C[C@H](N(C)C)[C@H]2O)[C@](C)(OC)C[C@@H](C)C2=NC[C@@H](Cc3ccccc3)N3C(=O)O[C@@]1(C)[C@H]3[C@H]2C [Example 6]
MIC [1]: > 100 mg/L | MIC (ESCHERICHIA COLI KNK 437): 6.2 mg/L (≈ 8.52 µM) | MIC [2]: 0.1 mg/L (≈ 0.137 µM) | MIC [3]: 0.39 mg/L (≈ 0.536 µM) | MIC [4]: 12.5 mg/L (≈ 17.2 µM) | MIC [5]: 100 mg/L (≈ 137 µM) | MIC [6]: 0.1 mg/L (≈ 0.137 µM) | MIC (PSEUDOMONAS CEPACIA 296I): 50 mg/L (≈ 68.7 µM) | MIC ([7]; unit assumed): 0.1 mg/L (≈ 0.137 µM) | MIC [8]: 0.02 mg/L (≈ 0.0275 µM) | MIC (CANDIDA ALBICANS CCH 442): > 100 mg/L | MIC (M[…] ATCC 9341; M. luteus ATCC 9341, unit assumed): 0.02 mg/L (≈ 0.0275 µM) | MIC (STR[…] 508; S. agalactiae CMX 508, unit assumed): 0.02 mg/L (≈ 0.0275 µM) | MIC (EN[…] ATCC 8043; E. faecium ATCC 8043, unit assumed): 0.1 mg/L (≈ 0.137 µM) | MIC (M[…] ATCC 4698): 0.1 mg/L (≈ 0.137 µM) | MIC (ESCHERICHIA COLI SS): 0.02 mg/L (≈ 0.0275 µM) | MIC [9]: 100 mg/L (≈ 137 µM) | MIC [10]: 12.5 mg/L (≈ 17.2 µM) | MIC ([11]; S. aureus A5177): 0.05 mg/L (≈ 0.0687 µM) | MIC ([12]; P. aeruginosa K799/61, unit assumed): 0.39 mg/L (≈ 0.536 µM) | MIC [13]: 0.1 mg/L (≈ 0.137 µM) | MIC [14]: 0.01 mg/L (≈ 0.0137 µM) | MIC (ESCHERICHIA COLI H560; E. coli H560, unit assumed): 3.1 mg/L (≈ 4.26 µM) | MIC ([15]; S. pyogenes 930, unit assumed): > 100 mg/L | MIC ([16]; P. aeruginosa BMH10, unit assumed): 50 mg/L (≈ 68.7 µM) | MIC [17]: 100 mg/L (≈ 137 µM) | MIC [18]: 0.2 mg/L (≈ 0.275 µM) | MIC [19]: > 100 mg/L | MIC ([20]; unit assumed): 25 mg/L (≈ 34.3 µM)

CCC1OC(=O)C(C)C(=O)C(C)C(OC2OC(C)CC(N(C)C)C2O)C(C)(OC)CC(C)C2=NCC(CCc3ccccc3)N3C(=O)OC1(C)C3C2C (stereo not shown) [Example 39]
MIC [3]: 0.2 mg/L (≈ 0.27 µM) | MIC [21]: > 100 mg/L | MIC [6]: 0.78 mg/L (≈ 1.05 µM) | MIC ([7]; listed as Ex 39, unit assumed): 0.39 mg/L (≈ 0.526 µM) | MIC [8]: 0.01 mg/L (≈ 0.0135 µM) | MIC (ESCHERICHIA COLI DC-2): 100 mg/L (≈ 135 µM) | MIC (M[…] ATCC 9341; M. luteus ATCC 9341, listed as Ex 39, unit assumed): 0.1 mg/L (≈ 0.135 µM) | MIC (STR[…] 508; S. agalactiae CMX 508, listed as Ex 39, unit assumed): 0.05 mg/L (≈ 0.0674 µM) | MIC (EN[…] ATCC 8043; E. faecium ATCC 8043, listed as Ex 39, unit assumed): 0.1 mg/L (≈ 0.135 µM) | MIC (M[…] ATCC 4698): 0.2 mg/L (≈ 0.27 µM) | MIC (ESCHERICHIA COLI SS): 0.39 mg/L (≈ 0.526 µM) | MIC ([11]; S. aureus A5177, unit assumed): 0.39 mg/L (≈ 0.526 µM) | MIC (ESCHERICHIA COLI JUHL): 100 mg/L (≈ 135 µM) | MIC ([12]; P. aeruginosa K799/61, listed as Ex 39, unit assumed): 1.56 mg/L (≈ 2.1 µM) | MIC [13]: 0.78 mg/L (≈ 1.05 µM) | MIC (ESCHERICHIA COLI H560; E. coli H560, listed as Ex 39, unit assumed): 25 mg/L (≈ 33.7 µM) | MIC ([15]; S. pyogenes 930, listed as Ex 39, unit assumed): 100 mg/L (≈ 135 µM) | MIC ([16]; P. aeruginosa BMH10, listed as Ex 39, unit assumed): 50 mg/L (≈ 67.4 µM) | MIC [18]: 0.39 mg/L (≈ 0.526 µM) | MIC ([20]; listed as Ex 39, unit assumed): 100 mg/L (≈ 135 µM)
